Test results reported in patent US11091477B2 (Madera Therapeutics, LLC, priority 2016, dated 2021).
Like-named read-outs stand apart in the source and are kept apart here.

Assays:
[1] = system: HCT116 (human colon cancer); assay: CCK-8 cell viability assay on HCT116 human colon cancer cells; type: cell-based; settings: HCT-116, 48 h
Experimental: The plate is incubated for 48 hours.

SUM159 = assay: CCK-8 cell viability assay on SUM159 human breast cancer cells; settings: for EC50: Homo sapiens, SUM159, 72 h, read-out: EC50 (uM, SUM159); for potency on human cancer lines in comparison to TIC10: SUM159 cells, 72 hours, versus TIC10
Experimental: The plate was incubated for 24 hours in a humidified incubator (37° C., 5% CO2). The compound from the present invention, at the appropriate test concentrations, are added to the culture media of the plate. The plate is incubated for 48 hours. CCK-8 (10 ul, see below) is added to each well. The plate is incubated from 1-4 h under conditions as described above, and the absorbance at 450 nm and 650 nm is measured with a plate reader.
Cell Counting was by CCK-8 using WST-8 (2-(2-methoxy-4-nitrophenyl)-3-(4-nitrophenyl)-5-(2,4-disulfophenyl)-2H-tetrazolium, monosodium salt), which produces a water-soluble formazan dye upon bioreduction in the presence of an electron carrier, 1-Methoxy PMS. CCK-8 solution is added directly to the cells. WST-8 is bioreduced by cellular dehydrogenases to an orange formazan product that is soluble in tissue culture medium. The amount of formazan produced is directly proportional to the number of living cells.

[2] = HCT116 cells, 48 hours compound incubation, CCK-8, read-out: EC50 (uM, HCT116)

Row | Compound | EC50 [1, 2] | other results
1 | Cc1cccc(Cn2c(=O)[nH]c3c(c2=O)CN(Cc2ccccc2)CC3)c1 [Example 2, 6-benzyl-3-[(3-methylphenyl)methyl]-1H, 2H, 3H, 4H, 5H, 6H, 7H, 8H-pyrido[4,3-d]pyrimidine-2,4-dione] | 3 µM | 
2 | Cc1cccc(Cn2c(=O)c3c(n(C)c2=O)CCN(Cc2ccccc2)C3)c1 [Example 3, 6-benxyl-1-methyl-3-[(3-methylphenyl)methyl]-1H, 2H, 3H, 4H, 5H, 6H, 7H, 8H-pyrido[4,3-d]pyrimidine-2,4-dione] | 0.18 µM | 
3 | Cc1cccc(Cn2c(=O)c3c(n(C(C)C)c2=O)CCN(Cc2ccccc2)C3)c1 [Example 4, 6-benzyl-1-isopropyl-3-(3-methylbenzyl)-5,6,7,8-tetrahydropyrido[4,3-d]pyrimidine-2,4(1H,3H)-dione] | 2 µM | 
4 | O=c1[nH]c2c(c(=O)n1Cc1ccc(Cl)cc1)CN(Cc1ccccc1)CC2 [Example 5, 6-benzyl-3-(4-chlorobenzyl)-5,6,7,8-tetrahydropyrido[4,3-d]pyrimidine-2,4(1H,3H)-dione] | 2.7 µM | 
5 | Cn1c2c(c(=O)n(Cc3ccc(Cl)cc3)c1=O)CN(Cc1ccccc1)CC2 [Example 6, 6-benzyl-3-(4-chlorobenzyl)-1-methyl-5,6,7,8-tetrahydropyrido[4,3-d]pyrimidine-2,4(1H,3H)-dione] | 0.26 µM | 
6 | CC(C)n1c2c(c(=O)n(Cc3ccc(Cl)cc3)c1=O)CN(Cc1ccccc1)CC2 [Example 7, 6-benzyl-3-(4-chlorobenzyl)-1-isopropyl-5,6,7,8-tetrahydropyrido[4,3-d]pyrimidine-2,4(1H,3H)-dione] | 6.6 µM | 
7 | O=c1[nH]c2c(c(=O)n1Cc1ccc(C(F)(F)F)cc1)CN(Cc1ccccc1)CC2 [Example 8, 3-(4-(trifluoromethyl)benzyl)-6-benzyl-5,6,7,8-tetrahydropyrido[4,3-d]pyrimidine-2,4(1H,3H)-dione] | 2.6 µM | 
8 | Cn1c2c(c(=O)n(Cc3ccc(C(F)(F)F)cc3)c1=O)CN(Cc1ccccc1)CC2 [Example 9] | 0.31 µM | 
9 | CC(C)n1c2c(c(=O)n(Cc3ccc(C(F)(F)F)cc3)c1=O)CN(Cc1ccccc1)CC2 [Example 10, 3-(4-(trifluoromethyl)benzyl)-6-benzyl-5,6,7,8-tetrahydro-1-isopropylpyrido[4,3-d]pyrimidine-2,4(1H,3H)-dione] | 7.1 µM | 
10 | Cn1c2c(c(=O)n(Cc3cccc(C(F)(F)F)c3)c1=O)CN(Cc1ccccc1)CC2 [Example 13] |  | EC50 ([1]; read-out: EC50 (uM, HCT116)): 1.4 µM
11 | CCn1c2c(c(=O)n(Cc3cccc(C(F)(F)F)c3)c1=O)CN(Cc1ccccc1)CC2 [Example 14, 3-(3-(trifluoromethyl)benzyl)-6-benzyl-1-ethyl-5,6,7,8-tetrahydropyrido[4,3-d]pyrimidine-2,4(1H,3H)-dione] | 2.5 µM | 
12 | Cn1c2c(c(=O)n(Cc3cccc(Cl)c3)c1=O)CN(Cc1ccccc1)CC2 [Example 15, 3-(3-chlorobenzyl)-6-benzyl-5,6,7,8-tetrahydro-1-methylpyrido[4,3-d]pyrimidine-2,4(1H,3H)-dione] | 3 µM | 
13 | Cn1c2c(c(=O)n(Cc3cccc(Br)c3)c1=O)CN(Cc1ccccc1)CC2 [Example 17, 6-benzyl-3-(3-bromobenzyl)-1-methyl-5,6,7,8-tetrahydropyrido[4,3-d]pyrimidine-2,4(1H,3H)-dione] | 1.1 µM | 
14 | C#Cc1cccc(CN2CCc3c(c(=O)n(Cc4ccc(C(F)(F)F)cc4)c(=O)n3C)C2)c1 [Example 18, 6-(3-ethynylbenzyl)-1-methyl-3-(4-(trifluoromethyl)benzyl)-5,6,7,8-tetrahydropyrido[4,3-d]pyrimidine-2,4(1H,3H)-dione] | 1.4 µM | 
15 | C#Cc1cccc(CN2CCc3c(c(=O)n(Cc4ccccc4C)c(=O)n3C)C2)c1 [Example 19, 6-(3-ethynylbenzyl)-1-methyl-3-(2-methylbenzyl)-5,6,7,8-tetrahydropyrido[4,3-d]pyrimidine-2,4(1H,3H)-dione] | 1.5 µM | 
16 | C#Cc1cccc(CN2CCc3c(c(=O)n(Cc4cccc(C)c4)c(=O)n3C)C2)c1 [Example 20, 6-(3-ethynylbenzyl)-1-methyl-3-(3-methylbenzyl)-5,6,7,8-tetrahydropyrido[4,3-d]pyrimidine-2,4(1H,3H)-dione] | 1 µM | 
17 | C#Cc1cccc(CN2CCc3c(c(=O)n(Cc4ccc(Cl)cc4)c(=O)n3C)C2)c1 [Example 21, 3-(4-chlorobenzyl)-6-(3-ethynylbenzyl)-1-methyl-5,6,7,8-tetrahydropyrido[4,3-d]pyrimidine-2,4(1H,3H)-dione] | 1.4 µM | 
18 | Cn1c2c(c(=O)n(Cc3ccc(C(F)(F)F)cc3)c1=O)CN(Cc1cccc(Cl)c1)CC2 [Example 22, 6-(3-chlorobenzyl)-1-methyl-3-(4-(trifluoromethyl)benzyl)-5,6,7,8-tetrahydropyrido[4,3-d]pyrimidine-2,4(1H,3H)-dione] | 0.1 µM | 
19 | Cn1c2c(c(=O)n(Cc3ccc4c(c3)OCO4)c1=O)CN(Cc1ccccc1)CC2 [Example 23, 3-(benzo[d][1,3]dioxol-5-ylmethyl)-6-benzyl-1-methyl-5,6,7,8-tetrahydropyrido[4,3-d]pyrimidine-2,4(1H,3H)-dione] | 2.5 µM | 
20 | Cn1c2c(c(=O)n(Cc3ccc(Br)cc3)c1=O)CN(Cc1cccc(C#N)c1)CC2 [Example 24, 3-((3-(4-bromobenzyl)-1-methyl-2,4-dioxo-1,2,3,4,7,8-hexahydropyrido[4,3-d]pyrimidin-6(5H)-yl)methyl)benzonitrile] | 0.022 µM | 
21 | Cn1c2c(c(=O)n(Cc3ccc(Cl)cc3)c1=O)CN(Cc1cccc(C#N)c1)CC2 [Example 25, 3-((3-(4-chlorobenzyl)-1-methyl-2,4-dioxo-1,2,3,4,7,8-hexahydropyrido[4,3-d]pyrimidin-6(5H)-yl)methyl)benzonitrile] |  | EC50 ([1]; read-out: EC50 (uM, HCT116)): 0.74 µM; EC50 (SUM159): 0.014 µM; potency on human cancer lines in comparison to TIC10 (SUM159): significant and unanticipated improvements in potency
22 | Cn1c2c(c(=O)n(Cc3ccc(C(F)(F)F)cc3)c1=O)CN(Cc1cccc(C#N)c1)CC2 [Example 26, 3-((1-methyl-2,4-dioxo-3-(4-(trifluoromethyl)benzyl)-1,2,3,4,7,8-hexahydropyrido[4,3-d]pyrimidin-6(5H)-yl)methyl)benzonitrile] | 0.5 µM | EC50 (SUM159): 0.017 µM; potency on human cancer lines in comparison to TIC10 (SUM159): significant and unanticipated improvements in potency
23 | CCn1c2c(c(=O)n(Cc3ccc(C(F)(F)F)cc3)c1=O)CN(Cc1cccc(C#N)c1)CC2 [Example 27, 3-((1-ethyl-2,4-dioxo-3-(4-(trifluoromethyl)benzyl)-1,2,3,4,7,8-hexahydropyrido[4,3-d]pyrimidin-6(5H)-yl)methyl)benzonitrile] | 1.9 µM | 
24 | CCn1c2c(c(=O)n(Cc3ccc(Cl)cc3)c1=O)CN(Cc1cccc(C#N)c1)CC2 [Example 28, 3-((3-(4-chlorobenzyl)-1-ethyl-2,4-dioxo-1,2,3,4,7,8-hexahydropyrido[4,3-d]pyrimidin-6(5H)-yl)methyl)benzonitrile] | 0.21 µM | 
25 | Cc1ccccc1CN1C(=O)C2=C(CCN(Cc3ccccc3)C2)N2CCN=C12 [TIC10, 11-benzyl-7-[(2-methylphenyl)methyl]-2,5,7,11-tetraazatricyclo[7.4.0.0^2,6]trideca-1(9),5-dien-8-one, reference compound] |  | EC50 ([1]; read-out: EC50 (uM, HCT116)): 2.8 µM; EC50 (SUM159): 1.4 µM
